Data taken from US20130216614A1, “IMMUNOGENIC COMPOSITIONS AND METHODS FOR TREATING NUEROLOGIC DISORDERS” (Glaxosmithkline Biologicals S.A., priority 2010, published 2013).

Legend:
CD11b+ monocytes = assay: Peripheral blood CD11b+ monocyte number by flow cytometry after single injection; assay type: in vivo, C57BL/6 mice; settings: for CD11b+ monocyte number in peripheral blood: 24 hrs after single injection; for circulating monocytes in peripheral blood: intramuscular injection; for circulating monocytes in peripheral blood / total monocytes in the peripheral blood: 24 hrs, normal count 5%; for total monocytes in the peripheral blood: intraperitoneal route
Text: Monocytes are the peripheral blood precursor cells of microglia (Rezaie, P., et al 1999. Microglia in the human fetal spinal cord—patterns of distribution, morphology and phenotype. Brain Res. Dev. Brain Res. 115:71-81: Mildner et al Nat Neurosci. 2007 December; 10(12):1544-53. Epub 2007 Nov. 18. PubMed PMID: 18026096.). During embryonic development, microglia populate the CNS from myeloid lineage precursors in the bone marrow and these cells are circulating in the peripheral blood before becoming macrophages in their infiltrating tissues, such as microglia are for the brain. Markers such as CD11b and Ly6C are immunologicals markers that are present on peripheral blood monocytes and persist when they are infiltrating the brain (Mildner et al., 2007 infra, Lebson L, et al Trafficking CD11b-positive blood cells deliver therapeutic genes to the brain ofamyloid-depositing transgenic mice. J Neurosci. 2010 Jul. 21; 30(29):9651-8. PubMed PMID: 20660248.). To investigate whether 3D MPL containing adjuvants and s are contributing to induce the number of monocytes in the peripheral blood, we have performed a single injection of those molecules and measure after 24 hrs (post injection) the CD11b+ monocytes number by a flow cytometry method (Mildner A, et al Microglia in the adult brain arise from Ly-6ChiCCR2+ monocytes only under defined host conditions. Nat Neurosci. 2007 December; 10(12):1544-53. Epub 2007 Nov. 18. PubMed PMID: 18026096). As described in FIG. 3, we are showing an increase of CD11b+ monocyte number having that phenotypic composition of markers :CD11b+, lineage cocktail negative (CD3-, B220-, NK1.1-,Ly6C-) after the injection of 3D MPL or AS15 or AS01B or CRX527 or CRX601. Comparing to a normal monocyte number count in the peripheral blood, which is 5% whereas the intramuscular (i.m.) injection of AS01B, and AS15 are showing an increase of the number of circulating monocytes to up to 20%. Moreover, the injection of 3D MPL or CRX601 or CRX601 using the intraperitoneal route is also showing a 22% of total monocytes in the peripheral blood.
Peripheral blood was drawn from C57BL/6 mice via cardiac puncture with lithium-heparin as anticoagulant, 24-Hour after injection of the TLR adjuvants. Red blood cell lysis was performed twice on pooled blood with Ammonium Chloride-based Buffer (Sigma, Steinheim, Germany) and cells were counted with the EasyCount™ System (Immunicon). After one washing step, 500,000 cells were incubated with Rat anti-Mouse CD16/CD32 (BD Fc Block™ by BD Biosciences) for 10 min. on ice and cells were further incubated for 30 min. with a combination of the following directly conjugated antibodies at their pre-determined optimal concentration as described by Mildner et al., 2007): PerCP labeled-Streptavidin, PE-Hamster anti-Mouse CD3, Rat anti-Mouse CD45R/B220, Rat anti-Mouse Ly-6G, Mouse anti-Mouse NK1.1 APC-conjugated Rat anti-Mouse CD11b, PE-Cy7-conjugated Hamster anti-Mouse CD11c, FITC-Rat Anti-Mouse Ly-6C (all from BD Biosciences) and Pacific Blue™ Rat anti-Mouse CD62L (BioLegend, San Diego, Calif.). Cells were finally washed three times and fixed for 15 min. with a 2% paraformaldehyde solution in PBS. Fluorescence minus one (FMO) controls were always included in the assays for fluorescent compensation setting.
Samples were acquired on a flow cytometer (BD FACSCanto II) and data analyzed with the FACSDiva software (BD Biosciences).
Monocytes were identified by their Side/Forward scatter properties and gated as CD3-/CD45R/B220-/Ly-6G-/NK1.1-(Lineage-)/CD11b+ cells. CD11b+ monocytes frequency was reported as a percentage of the total cells excluding debris.
24-Hour after injection of the TLR adjuvants, peripheral blood was drawn from C57BL/6 mice via cardiac puncture with lithium-heparin as anticoagulant. Red blood cell lysis was performed twice on pooled blood with Ammonium Chloride-based Buffer (Sigma, Steinheim, Germany) and cells were counted with the EasyCount™ System (Immunicon). […]

[1] = Innate cytokine/chemokine profile in sera after injection; assay type: in vivo, C57BL/6 mice
Method: FIG. 17: Innate cytokines profile from sera after either LPS or 3DMPL injected mice using the intraperitoneal route at 2 hr or 6 hr post injection time point. Results are shown in relative units (RU or pg/ml) of various cytokines/chemokines in sera for PBS and LPS or 3DMPL injected mice after 2 hours or 6 hours. N=5 mice per group. […] Tukey post-hoc test used for the comparison following ANOVA-1 analysis.
FIG. 18: Innate cytokines profile from sera after either AS01B, AS03 or AS04D injected mice using the intramuscular at 2 hr or 6 hr post injection time point. Results are shown in relative units (RU or pg/ml) of various cytokines/chemokines in sera for PBS and LPS or 3D MPL injected mice after 2 hours or 6 hours. N=5 mice per group. The bars represent mean±SEM.
We measured several cytokines and chemokines in the sera of C57BL/6 mice 2 and 6 h following a single intraperitoneal injection of either MPL or LPS.
Innate cytokines profile from sera after either AS01B, AS03 or AS04D was injected into mice using the intramuscular route, samples taken at 2 hr or 6 hr post injection time point. Results are shown in relative units (RU or pg/ml) of various cytokines/chemokines in sera for PBS and LPS or MPL injected mice after 2 hours or 6 hours. N=5 mice per group. The bars represent mean±SEM.

Molecule | CD11b+ monocyte number in peripheral blood (CD11b+ monocytes) | monocyte count effect (CD11b+ monocytes; 20 μg dose i.m.) | circulating monocytes in peripheral blood (CD11b+ monocytes) | total monocytes in the peripheral blood (CD11b+ monocytes) [%] | amount enough to trigger an increase of the monocyte count (CD11b+ monocytes; single i.m. injection, six doses 0.2 to 20 μg) [µg] | CCL2 level compared to the LPS group ([1]; 2 h after i.p. injection) | CXCL-1 level compared to the LPS group ([1]; 2 h after i.p. injection) | levels of TNF-α and IL-6 in sera ([1]; 2 h post i.p. injection) | levels of TNF-α and IL-6 in sera ([1]; 6 h post i.p. injection) | serum cytokine and chemokine levels compared with LPS-treated animals ([1]; single i.p. injection, 2 and 6 h) | CD11b+ monocyte in the peripheral blood (CD11b+ monocytes; 5 μg dose i.m., 24 hours) | peripheral blood monocyte count (CD11b+ monocytes; 50 μg dose i.m., 24 hours)
CCCCCCCCCCC[C@H](CC(=O)N[C@H]1[C@H](OC[C@H](NC(=O)C[C@@H](CCCCCCCCCCC)OC(=O)CCCCCCCCC)C(=O)O)O[C@H](CO)[C@@H](OP(=O)(O)O)[C@@H]1OC(=O)C[C@@H](CCCCCCCCCCC)OC(=O)CCCCCCCCC)OC(=O)CCCCCCCCC [CRX527] | increase | – | – | – | – | – | – | – | – | – | – | –
CCCCCCCCCCC[C@H](CC(=O)N[C@H]1[C@H](OC[C@H](NC(=O)C[C@@H](CCCCCCCCCCC)OCCCCCCCCCC)C(=O)O)O[C@H](CO)[C@@H](OP(=O)(O)O)[C@@H]1OC(=O)C[C@@H](CCCCCCCCCCC)OCCCCCCCCCC)OCCCCCCCCCC [CRX601] | increase | down modulated | up to 12% | 22 | 1 | – | – | – | – | – | – | –
3-O-desacyl-4′-monophosphoryl lipid A [3D MPL] | increase | – | ≤ 13% | 22 | – | higher | similar | modest increase | essentially abolished | substantially lower | double increase | drop
